Source: patent publication US20160250285A1, “NEUROPROTECTIVE PEPTIDES” (priority 2013, published 2016)
Like-named read-outs stand apart in the source and are kept apart here. Peptide text beside a SMILES is read from it.

Assays:
[1] = system: primary cortical neuronal cultures; details: for neuroprotection, milder insult: FIG. 1i, comparison at 0.5 μM and 1 μM; for neuroprotection (neuronal viability): peptide 15 min prior to and during glutamic acid exposure, viability 24 h, MTS
Protocol: Briefly, cortical tissue from E18-E19 Sprague-Dawley rats was dissociated in Dulbecco's modified Eagle medium (DMEM; Invitrogen, Australia) supplemented with 1.3 mM L-cysteine, 0.9 mM NaHCOa, 10 units/ml papain (Sigma, USA) and 50 units/ml DNase (Sigma) and washed in cold DMEM/10% horse serum. Neurons were resuspended in Neurobasal (Invitrogen) containing 2% B27 supplement (B27; Invitrogen). Before seeding, 96-well sized glass wells (6 mm diameter, ProTech, Australia) or 96-well plastic plates (ProSciTech, Australia) were coated with poly-D-lysine overnight ([…]: 50 mg/mL; 70-150 K, Sigma). […] Neurons were plated to obtain ≈10,000 viable neurons for each well on day in vitro 11-12. […] On day in vitro 4 one third of the culture medium was removed and replaced with fresh Neurobasal/2% B27 containing the mitotic inhibitor, cytosine arabinofuraNOside (1 mM final concentration; Sigma). On day in vitro 8 one half of the culture medium was replaced with Neurobasal/2% B27.
To induce excitotoxicity, 50 μl of Neurobasal/2% B27 containing glutamic acid (200 μM) or kainic acid (400 μM) or NMDA (200 μM) was added to the culture wells (100 μM glutamic acid, 200 μM kainic acid and NMDA 100 μM final concentration). Cultures were incubated at 37° C. in the CO2 incubator for 5 minutes for glutamic acid, 45 minutes for kainic acid and 10 minutes for NMDA exposure, after which time the media was replaced with 100 μl of 50% Neurobasal/2% N2 supplement (Invitrogen) and 50% balanced salt solution (BSS; see below). Cultures were incubated for a further 24 hours at 37° C. in the CO2 incubator. The untreated controls with or without glutamic acid or kainic acid treatment received the same wash steps and media additions.
Following this step, cultures were treated as described above. Untreated controls with or without glutamic acid exposure received the same wash steps and media additions. In addition, a post-glutamic acid exposure CPP treatment (5 μM) experiment was performed for the R9 peptide and the JNKI-1D-TAT control peptide.
For pre-glutamic acid exposure experiments, neurons were exposed to peptide(s) for a 10 minute period, immediately before or 1, 2, 3, 4 or 5 hours prior to glutamic acid exposure. […] At the relevant peptide pre-treatment time, media was removed and replaced with 100 μl of Neurobasal/2%. […] Following 5-minute glutamic acid exposure, neuronal culture wells were treated as described above. For all experiments untreated controls with or without glutamic acid treatment underwent the same incubation steps and media additions.
Heparin (for injection) was obtained from Pfizer (1000 IU/ml). Two different heparin experiments were performed: 1. Peptides were incubated with heparin (20 IU/ml) in Neurobasal/B27 for 5 minutes at room temperature, before addition to culture wells (50 μl) for 15 minutes at 37° C. in the CO2 incubator. Following the incubation period, media in wells was removed and replaced with 100 μl of Neurobasal/2% B27 containing glutamic acid (100 μM), and subsequently treated as described above; 2. Media in wells was replaced with Neurobasal/2% B27 containing heparin (50 μl; 40 IU/ml) and incubated for 5 minutes at 37° C. in the CO2 incubator. After the incubation period, peptides or glutamate receptor blockers (MK801/CNQX) in Neurobasal/2% B27 (50 μl) were added to the culture wells and cultures incubated for a further 10 minutes at 37° C. in the CO2 incubator. Following the incubation period, media in wells was removed and replaced with 100 μl of Neurobasal/2% B27 containing glutamic acid (100 μM), and subsequently treated as described above. For all experiments, non-heparin treated peptide controls with glutamic acid treatment underwent the same incubation steps and media additions.
Twenty-four hours after insult, neuronal cultures were examined by light microscopy for qualitative assessment of neuronal cell viability.

[2] = system: intracellular calcium influx in neuronal cultures; assay: Intracellular calcium influx (Fura-2 AM) after glutamic acid; assay type: cell-based, rat; details: peptide 5 μM for 10 min, removed before 100 μM glutamic acid (FIG. 44)
Protocol: Fura-2 AM was used for intracellular calcium assessment. Representative fluorescent Fura-2 AM tracers; fluorescence intensity (FI) of neuronal cultures 30 sec before and following addition (arrow) of glutamic acid (100 μM final concentration). Peptides or glutamate receptor blockers were added to neuronal cultures for 10 min and removed (time 0) before glutamic acid. Values are mean±SE; n=3. Peptide concentration was 5 μM.
Briefly, cortical tissue from E18-E19 Sprague-Dawley rats was dissociated in Dulbecco's modified Eagle medium (DMEM; Invitrogen, Australia) supplemented with 1.3 mM L-cysteine, 0.9 mM NaHCOa, 10 units/ml papain (Sigma, USA) and 50 units/ml DNase (Sigma) and washed in cold DMEM/10% horse serum. Neurons were resuspended in Neurobasal (Invitrogen) containing 2% B27 supplement (B27; Invitrogen). Before seeding, 96-well sized glass wells (6 mm diameter, ProTech, Australia) or 96-well plastic plates (ProSciTech, Australia) were coated with poly-D-lysine overnight (50 ml/well: 50 mg/mL; 70-150 K, Sigma). Excess poly-D-lysine solution was then removed and replaced with Neurobasal (containing 2% B27; 4% fetal bovine serum; 1% horse serum; 62.5 mM glutamate; 25 mM 2-mercaptoethanol; and 30 mg/mL streptomycin and 30 mg/mL penicillin). Neurons were plated to obtain ≈10,000 viable neurons for each well on day in vitro 11-12. Neuronal cultures were maintained in a CO2 incubator (5% CO2, 95% air balance, 98% humidity) at 37° C. On day in vitro 4 one third of the culture medium was removed and replaced with fresh Neurobasal/2% B27 containing the mitotic inhibitor, cytosine arabinofuraNOside (1 mM final concentration; Sigma). On day in vitro 8 one half of the culture medium was replaced with Neurobasal/2% B27. Cultures were used on day in vitro 11 or 12 after which time they routinely consist of >97% neurons and 1-3% astrocytes (Meloni et al. 2001).

[3] = system: primary cortical neuronal cultures; assay: In vitro ischemia / oxygen-glucose deprivation (OGD) model, neurons; assay type: cell-based, rat
Protocol: Establishment of cortical cultures was as previously described (Meloni et al. 2001). Briefly, cortical tissue from E18-E19 Sprague-Dawley rats was dissociated in Dulbecco's modified Eagle medium (DMEM; Invitrogen, Australia) supplemented with 1.3 mM L-cysteine, 0.9 mM NaHCOa, 10 units/ml papain (Sigma, USA) and 50 units/ml DNase (Sigma) and washed in cold DMEM/10% horse serum. Neurons were resuspended in Neurobasal (Invitrogen) containing 2% B27 supplement (B27; Invitrogen). Before seeding, 96-well sized glass wells (6 mm diameter, ProTech, Australia) or 96-well plastic plates (ProSciTech, Australia) were coated with poly-D-lysine overnight (50 ml/well: 50 mg/mL; 70-150 K, Sigma). Excess poly-D-lysine solution was then removed and replaced with Neurobasal (containing 2% B27; 4% fetal bovine serum; 1% horse serum; 62.5 mM glutamate; 25 mM 2-mercaptoethanol; and 30 mg/mL streptomycin and 30 mg/mL penicillin). Neurons were plated to obtain ≈10,000 viable neurons for each well on day in vitro 11-12. Neuronal cultures were maintained in a CO2 incubator (5% CO2, 95% air balance, 98% humidity) at 37° C. On day in vitro 4 one third of the culture medium was removed and replaced with fresh Neurobasal/2% B27 containing the mitotic inhibitor, cytosine arabinofuraNOside (1 mM final concentration; Sigma). On day in vitro 8 one half of the culture medium was replaced with Neurobasal/2% B27. Cultures were used on day in vitro 11 or 12 after which time they routinely consist of >97% neurons and 1-3% astrocytes (Meloni et al. 2001).
The in vitro ischemia model used for primary cortical neuronal cultures was performed as previously described (Meloni et at 2011) Briefly, culture media was removed from wells (glass 96-well plate format) and washed with 315 μl of glucose free balanced salt solution (BSS; mM: 116 NaCl, 5.4 KCl, 1.8 CaCl2, 0.8 MgSO4, 1 NaH2PO4; pH 6.9) before the addition of 60 μl BSS containing cell penetrating or control peptides (see Table 1). A non-peptide positive control consisting of the glutamate receptor blockers (5 μM MK801/5 μM 6-cyano-7-nitroquinoxaline: MK801/CNQX) was also included. In vitro ischemia was initiated by placing wells in an anaerobic incubator (Don Whitely Scientific, England; atmosphere of 5% CO2, 10% H2 and 85% argon, 98% humidity) at 37° C. for 55 minutes. Upon removal from the anaerobic incubator, 60 μl of Neurobasal/2% N2 supplement was added to the wells and cultures incubated for a further 24 hours at 37° C. in the CO2 incubator. Control cultures received the same BSS wash procedures and media additions as ischemic treated cultures before incubation at 37° C. in the CO2 incubator.
Control cultures underwent the same BSS wash procedures and media additions as OGD treated cultures.
Twenty-four hours after insult, neuronal cultures were examined by light microscopy for qualitative assessment of neuronal cell viability. Neuronal viability was quantitatively measured by 3-(4,5,dimethyliazol-2-yl)-5-(3-carboxymethoxy-phenyl)-2-(4-sulfophenyl)-2H-tetrazolium salt (MTS) assay (Promega, Australia). The MTS assay measures the cellular conversion of the tetrazolium salt to a water-soluble brown formazan salt, which is detected spectrophotometrically at 490 nm. MTS absorbance data were converted to reflect proportional cell viability relative to both the untreated and treated controls, with the untreated control taken as 100% viability, and presented as mean±SEM. […] Viability data was analysed by ANOVA, followed by post-hoc Fischer's PLSD test, with P<0.05 values considered statistically significant. Four- to six wells were used in all assays.

[4] = system: permanent middle cerebral artery occlusion (MCAO) stroke model; assay: Rat permanent middle cerebral artery occlusion (MCAO) stroke model; assay type: in vivo; details: 1 μmol/kg IV 30 min post-MCAO; infarct volume 24 h post-MCAO (FIGS. 5, 27)
Protocol: Administration of peptide (DR9: rrrrrrrrr-NH2; R12, R15, R18, protamine sulphate; protamine) or vehicle (saline: 0.9% NaCl) treatment solution was performed at 30 min post-MCAO. The peptide treatment comprised DR9 in saline (600 μl) to provide an intravenous loading dose of 1 μmol/kg or 1000 nmol/kg given over 5-6 min via the right jugular vein.
This study was approved by the Animal Ethics Committee of the University of Western Australia. Male Sprague Dawley rats weighing 270 g to 350 g were kept under controlled housing conditions with 12 hour light-dark cycle with free access to food and water. Experimental animals were fasted overnight and subjected to permanent middle cerebral artery occlusion (MCAO) as follows.
Anaesthesia was induced with 4% isoflurane and a 2:1 mix of N2O and O2 via mask. Anaesthesia was maintained at 1.7-2% isoflurane. Cerebral blood flow (CBF) was monitored continuously using laser Doppler flowmetry (Blood FlowMeter, AD Instruments, Sydney, Australia). The probe was located 1 mm caudal and 4 mm lateral (right) to the bregma. A cannula was inserted in the right femoral artery to continuously monitor blood pressure and to provide samples for blood glucose and blood gas readings. Blood glucose was measured using a glucometer (MediSense Products, Abbott Laboratories, Bedford, Mass., USA) and blood gases were measured using a blood gas analyser (ABL5, Radiometer, Copenhagen, Denmark). Blood pressure was maintained at 80-100 mmHg. During surgery, rectal temperature was maintained at 37±0.5° C. and warming applied with a fan heater when necessary. For intravenous infusions, a length of PVC line primed with heparinised saline was tied in place in the right jugular vein, then externalised through a dorsal mid-scapular incision to a tether/swivel system (Instech Laboratories, Philadelphia, USA) designed to permit free movement.
The right common carotid artery (CCA) was exposed via a ventral neck incision. […] The isolated section of the ECA was ligated and cauterised to create a stump. The carotid body was removed and the pterygopalatine artery was ligated. A 4-0 nylon monofilament with a 0.39 mm diameter silicone tip (Doccol, Redlands, Calif., USA) was inserted through the ECA stump into the CCA and advanced rostrally into the internal carotid artery (ICA) until the laser Doppler flowmetry recorded a >30% decrease from baseline of cerebral blood flow. The monofilament was secured in two places (at the base of the ECA stump and on the ICA) for the remainder of the experiment. Animals were given post-operative analgesia consisting of pethidine (3 mg/kg intramuscular) and bupivacaine (1.5 mg/kg subcutaneously) at head and leg incision sites.
Post-surgery animals were allowed to recover in a climate-controlled chamber and their core body temperature monitored and maintained at 37±0.5° C. by a cooling/heating fan when required for 3-4 hours.
Animals were sacrificed 24 hours post-MCAO with intra-peritoneal injections of sodium pentobarbitone (900 mg/kg). […] Slices were scanned and images were analysed by an operator blind to treatment status using ImageJ 3rd edition (NIH, USA). The total infarct volume was determined by adding the areas of infarcted tissue on both sides of the 2 mm sections. These measured areas were multiplied by half slice thickness (1 mm), and corrected for cerebral oedema by multiplying the ratio of affected to normal hemisphere areas. […]

Compound: N=C(N)NCCC[C@H](N)C(=O)O [Peptide R1, H-R-OH]
- neuroprotection, milder insult [1]: ineffective
- neuroprotection (neuronal viability) [1]: no to little neuroprotection
- IC50 ([1]; read-out: IC50: Glutamic acid model, Table 4, polyarginine peptides, from dose response graph FIG. 1e): > 5 µM

Compound: N=C(N)NCCC[C@H](NC(=O)[C@H](CCCNC(=N)N)NC(=O)[C@@H](N)CCCNC(=N)N)C(=O)O [Peptide R3, H-RRR-OH] (H-Arg-Arg-Arg-OH)
- IC50 [1]: > 5 µM
- neuroprotection, milder insult [1]: ineffective
- neuroprotection (neuronal viability) [1]: no to little neuroprotection

Compound: N=C(N)NCCC[C@H](NC(=O)[C@H](CCCNC(=N)N)NC(=O)[C@H](CCCNC(=N)N)NC(=O)[C@H](CCCNC(=N)N)NC(=O)[C@H](CCCNC(=N)N)NC(=O)[C@@H](N)CCCNC(=N)N)C(=O)O [Peptide R6, H-RRRRRR-OH]
- IC50 [1]: > 5 µM
- neuroprotection, milder insult [1]: ineffective

Compound: Ac-PLFAE-RRRRRRRRR-NH2 (Ac-PLFAERRRRRRRRR-NH2) [Cal/R9]
- neuroprotection (neuronal viability) [1]: moderate to high level neuroprotection

Compound: GRKKRRQRRRG [TAT, the TAT peptide, reference compound]
- neuroprotection when peptide washed-out prior to glutamic acid exposure ([1]; 15 min incubation, wash-out before insult (FIG. 1c)): loss of efficacy
- calcium influx after glutamic acid [2]: to varying degrees reduced calcium influx

Compound: H-AAVALLPAVLLALLAP-OH [kFGF, reference compound]
- neuroprotection (neuronal viability) [1]: ineffective

Compound: H-AAVALLPAVLLALLAP-PPRPKRPTTLNLFPQVPRSQDT-OH (H-AAVALLPAVLLALLAPPPRPKRPTTLNLFPQVPRSQDT-OH) [kFGF-JNKI-1, reference compound]
- neuroprotection (neuronal viability) [1]: not neuroprotective

Compound: H-EEEEEEEEE-RRRRRRRRR-OH (H-EEEEEEEEERRRRRRRRR-OH) [E9/R9, reference compound]
- neuroprotection (neuronal viability) ([1]; listed as E91R9): no protection

Compound: H-GRKKRRQRRR-PPRPKRPTTLNLFPQVPRSQDT-OH (H-GRKKRRQRRRPPRPKRPTTLNLFPQVPRSQDT-OH) [TAT-JNKI-1, reference compound]
- neuroprotection (neuronal viability) [1]: neuroprotective
- calcium influx after glutamic acid [2]: to varying degrees reduced calcium influx

Compound: H-KETWWETWWTEWSQPKKKRKV-NH2 [Pep-1, reference compound]
- IC50 ([3]; 24 h): > 15 µM
- lower concentrations at which neuroprotective ([3]; FIG. 3a): 1 to 5 µM
- neuroprotection ([3]; peptide present during in vitro ischemia and at 50% dose after (FIG. 3a)): neuroprotective following in vitro ischemia at lower concentrations

Compound: H-RRERRRRSCAGCSRARGSCRSCRR-NH2 (cysteine pairing not given here) [NCXBP3]
- neuroprotection (neuronal viability) [1]: high levels of protection

Compound: H-RRRRRRRR-OH [Peptide R8]
- concentration at which (significant) neuroprotection displayed ([1]; dose response studies FIGS. 6, 7, 8): 5 µM
- neuroprotection (neuronal viability) [1]: moderate to high level neuroprotection

Compound: H-RRRRRRRRRPGRVVGGRRRRRRRRR-OH [R9/tPA/R9]
- IC50 [1]: 0.29 µM
- order of potency ([1]; dose response studies, glutamate model): potency between R12 and R18
- neuroprotection (neuronal viability) [1]: highly effective

Compound: H-YARAAARQARA-OH [PTD-4, reference compound]
- neuroprotection (neuronal viability) [1]: little to no neuroprotective properties
- neuroprotection (neuronal viability) ([1]; listed as PTA4): largely ineffective

Compound: H-rrrrrrrrr-NH2 [D-R9]
- effect of heparin on neuroprotective action ([1]; heparin 20 IU/ml with peptide or 40 IU/ml on cultures (FIGS. 39, 40)): blocks neuroprotective actions
- reduction of infarct volume (brain damage) [4]: approximately 20%
- calcium influx after glutamic acid [2]: to varying degrees reduced calcium influx

Compound: PRRRRSSRRPVRRRRRPRVSRRRRRGGRRRR [Ptm2]
- neuroprotection (neuronal viability) [1]: neuroprotective
- neuroprotection when added for 15 minutes after OGD ([3]; FIGS. 31, 20, 22, 1 μM and 5 μM in FIG. 31): neuroprotective
- neuroprotection in the OGD model (overall statement) ([3]; discussion summary): neuroprotective

Compound: PRRRRSSSRPVRRRRRPRVSRRRRRGGRRRR [Ptm3]
- neuroprotection (neuronal viability) [1]: neuroprotective
